Measurements reported in patent US9775351B2, “Ternary fungicidal and pesticidal mixtures” (BAYER CROPSCIENCE AG, priority 2012, dated 2017).

Test system: Rhizoctonia solani
Experiment: Rhizoctonia test (cotton)/seed treatment
Type: in vivo
Conditions: greenhouse, 7 days at 20° C
Method: Rhizoctonia Test (Cotton)/Seed Treatment
The test is performed under greenhouse conditions.
Commercially available disease control agents, active compounds solved in N-methyl-2-pyrrolidon, or combinations thereof were diluted with water to the desired dosages. Cotton seeds were treated with this preparations and sown in 6*6 cm pots containing 4 cm of a 1:1 mix of steamed field soil and sand, mixed with a perlite-culture of Rhizoctonia solani.
Pots were incubated in the greenhouse for 7 days at 20° C.
Assessment consisted of counting of emerged seedlings and diseased plants. 0% means an efficacy which corresponds to that of the untreated control, while an efficacy of 100% means that all seedlings have emerged and are healthy.

COCC(=O)N(c1c(C)cccc1C)C(C)C(=O)OC (stereo not drawn) [metalaxyl]
Efficacy in % (application rate 1 g a.i./dt): 12%

CC1CC(C)(C)c2cccc(NC(=O)c3cn(C)nc3C(F)F)c21 (stereo not drawn) [(I-1), 3-(difluoromethyl)-1-methyl-N-(1,1,3-trimethyl-2,3-dihydro-1H-inden-4-yl)-1H-pyrazole-4-carboxamide]
Efficacy in % (application rate 10 g a.i./dt): 41%

CN/C(=N\[N+](=O)[O-])NCc1cnc(Cl)s1 [clothianidin]
Efficacy in % (application rate 12 g a.i./dt): 24%
